Experiment [1] deals with T1, erbB2 tyrosine kinase (Homo sapiens, UniProt P04626).
T1 construct: Recombinant intracellular fragments of EGFR, erbB2 and erbB4; made in house; host or cells: baculovirus/Sf21
In words: Protein tyrosine kinase phosphorylation assay, Test (a), erbB2. The experiment is classed as biochemical. As to conditions: recombinant intracellular fragment, ATP at Km; read-out: IC50 (μM) Test (a): Inhibition of erbB2 tyrosine kinase protein phosphorylation. Here is the method:
(§1) This test measures the ability of a test compound to inhibit the phosphorylation of a tyrosine containing polypeptide substrate by EGFR or ErbB2 tyrosine kinase enzyme.
(§2) Recombinant intracellular fragments of EGFR, erbB2 and erbB4 (accession numbers X00588, X03363 and L07868 respectively) were cloned and expressed in the baculovirus/Sf21 system. Lysates were prepared from these cells by treatment with ice-cold lysis buffer (20 mM N-2-hydroxyethylpiperizine-N′-2-ethanesulfonic acid (HEPES) pH7.5, 150 mM NaCl, 10% glycerol, 1% Triton X-100, 1.5 mM MgCl2, 1 mM ethylene glycol-bis(β-aminoethyl ether) N′,N′,N′,N′-tetraacetic acid (EGTA), plus protease inhibitors and then cleared by centrifugation.
(§3) Constitutive kinase activity of the recombinant protein was determined by its ability to phosphorylate a synthetic peptide (made up of a random co-polymer of Glutamic Acid, Alanine and Tyrosine in the ratio of 6:3:1). Specifically, Maxisorb™ 96-well immunoplates were coated with synthetic peptide (0.2 μg of peptide in a 100 μl phosphate buffered saline (PBS) solution and incubated at 4° C. overnight). Plates were washed in PBS-T (phosphate buffered saline with 0.5% Tween 20) then in 50 mM HEPES pH 7.4 at room temperature to remove any excess unbound synthetic peptide. […]
(§4) The immobilised phospho-peptide product of the reaction was detected by immunological methods. […] After further washing, HRP activity in each well of the plate was measured colorimetrically using 22′-Azino-di-[3-ethylbenzthiazoline sulfonate (6)] diammonium salt crystals (ABTS™ from Roche) as a substrate.
(§5) Quantification of colour development and thus enzyme activity was achieved by the measurement of absorbance at 405 nm on a Molecular Devices ThermoMax microplate reader. Kinase inhibition for a given compound was expressed as an IC50 value. […] The range of phosphorylation was calculated from the positive (vehicle plus ATP) and negative (vehicle minus ATP) control values.

Experiment [2] addresses T2, EGFR tyrosine kinase (Homo sapiens, UniProt P00533).
T2 construct: Recombinant intracellular fragments of EGFR, erbB2 and erbB4; made in house; host or cells: baculovirus/Sf21
The experiment can be described thus: Protein tyrosine kinase phosphorylation assay, Test (a), EGFR. The following applies: recombinant intracellular fragment, ATP at Km; read-out: IC50 (μM) Test (a): Inhibition of EGFR tyrosine kinase protein phosphorylation. The class given is biochemical. Here is the method:
as §1, §2, §3, §4, §5

Experiment [3] relates to KB cells. The experiment can be described thus: EGFR driven KB cell proliferation assay, Test (b). The class given is cell-based. As to conditions: Homo sapiens, 96 h, EGF 1 ng/ml, 4 days, MTT. Here is the method:
This assay measures the ability of a test compound to inhibit the proliferation of KB cells (human naso-pharangeal carcinoma obtained from the American Type Culture Collection (ATCC).
KB cells (human naso-pharangeal carcinoma obtained from the ATCC were cultured in Dulbecco's modified Eagle's medium (DMEM) containing 10% foetal calf serum, 2 mM glutamine and non-essential amino acids at 37° C. in a 7.5% CO2 air incubator. Cells were harvested from the stock flasks using Trypsin/ethylaminediaminetetraacetic acid (EDTA). Cell density was measured using a haemocytometer and viability was calculated using trypan blue solution before being seeded at a density of 1.25×10^3 cells per well of a 96 well plate in DMEM containing 2.5% charcoal stripped serum, 1 mM glutamine and non-essential amino acids at 37° C. in 7.5% CO2 and allowed to settle for 4 hours.
Following adhesion to the plate, the cells are treated with or without EGF (final concentration of 1 ng/ml) and with or without compound at a range of concentrations in dimethylsulfoxide (DMSO) (0.1% final) before incubation for 4 days. Following the incubation period, cell numbers were determined by addition of 50 μl of 3-(4,5-Dimethylthiazol-2-yl)-2,5-diphenyltetrazolium bromide (MTT) (stock 5 mg/ml) for 2 hours. […]
Absorbance of the solubilised cells was read at 540 nm using a Molecular Devices ThermoMax microplate reader. […]

Experiment [4] addresses T3, erbB2 (Homo sapiens, UniProt P04626).
T3 construct: overexpresses full length wild type erbB2 protein; expressed in transfected cells; host or cells: MCF7 (breast carcinoma) derived Clone 24 cells
In words: Clone 24 phospho-erbB2 cell assay, Test (e). The class given is cell-based. As to conditions: MCF7 derived Clone 24 cells overexpressing erbB2, 4 hrs; read-out: IC50 (μM) Test (e): Inhibition of erbB2 tyrosine kinase protein phosphorylation. Here is the method:
This immunofluorescence end point assay measures the ability of a test compound to inhibit the phosphorylation of erbB2 in a MCF7 (breast carcinoma) derived cell line which was generated by transfecting MCF7 cells with the full length erbB2 gene using standard methods to give a cell line that overexpresses full length wild type erbB2 protein (hereinafter ‘Clone 24’ cells).
Clone 24 cells were cultured in Growth Medium (phenol red free Dulbecco's modified Eagle's medium (DMEM) containing 10% foetal bovine serum, 2 mM glutamine and 1.2 mg/ml G418) in a 7.5% CO2 air incubator at 37° C. Cells were harvested from T75 stock flasks by washing once in PBS (phosphate buffered saline, pH7.4, Gibco No. 10010-015) and harvested using 2 mls of Trypsin (1.25 mg/ml)/ethylaminediaminetetraacetic acid (EDTA) (0.8 mg/ml) solution. The cells were resuspended in Growth Medium. Cell density was measured using a haemocytometer and viability was calculated using Trypan Blue solution before being further diluted in Growth Medium and seeded at a density of 1×10^4 cells per well (in 100 ul) into clear bottomed 96 well plates (Packard, No. 6005182).
3 days later, Growth Medium was removed from the wells and replaced with 100 ul Assay Medium (phenol red free DMEM, 2 mM glutamine, 1.2 mg/ml G418) either with or without erbB inhibitor compound. Plates were returned to the incubator for 4 hrs and then 20 μl of 20% formaldehyde solution in PBS was added to each well and the plate was left at room temperature for 30 minutes. This fixative solution was removed with a multichannel pipette, 100 μl of PBS was added to each well and then removed with a multichannel pipette and then 50 μl PBS was added to each well. Plates were then sealed and stored for up to 2 weeks at 4° C.
Immunostaining was performed at room temperature. […]
The Fluorescence signal is each well was measured using an Acumen Explorer Instrument (Acumen Bioscience Ltd.), a plate reader that can be used to rapidly quantitate features of images generated by laser-scanning. […]

Results on three compounds are retold here after patent US8318752B2, “4-(3-chloro-2-fluoroanilino)-7-methoxy-6-{[1-(N-methylcarbamoyl-methyl)piperidin-4-yl]oxy}quinazoline, its pharmaceutically acceptable salts, and pharmaceutical compositions comprising the same” (Astrazeneca AB, priority 2003, dated 2012).

As a reminder, the IC50 is the concentration that inhibits the measured activity by half.

T1 sequence (P04626 676-1255 limits assumed): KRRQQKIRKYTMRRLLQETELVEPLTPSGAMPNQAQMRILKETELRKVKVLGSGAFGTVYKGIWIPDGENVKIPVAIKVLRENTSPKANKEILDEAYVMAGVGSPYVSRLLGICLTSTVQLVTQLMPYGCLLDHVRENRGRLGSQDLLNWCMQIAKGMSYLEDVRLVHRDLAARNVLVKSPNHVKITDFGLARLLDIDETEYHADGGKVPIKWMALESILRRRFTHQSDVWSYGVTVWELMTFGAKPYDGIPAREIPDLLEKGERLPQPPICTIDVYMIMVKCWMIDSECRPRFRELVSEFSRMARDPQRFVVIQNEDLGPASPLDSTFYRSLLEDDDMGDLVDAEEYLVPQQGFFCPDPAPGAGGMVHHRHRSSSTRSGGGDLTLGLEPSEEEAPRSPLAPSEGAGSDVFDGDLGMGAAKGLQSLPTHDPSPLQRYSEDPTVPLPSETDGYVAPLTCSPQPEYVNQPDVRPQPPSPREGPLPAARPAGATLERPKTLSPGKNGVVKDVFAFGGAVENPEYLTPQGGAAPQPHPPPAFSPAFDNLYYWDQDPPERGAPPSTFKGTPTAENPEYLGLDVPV
T3 sequence (P04626 23-1255): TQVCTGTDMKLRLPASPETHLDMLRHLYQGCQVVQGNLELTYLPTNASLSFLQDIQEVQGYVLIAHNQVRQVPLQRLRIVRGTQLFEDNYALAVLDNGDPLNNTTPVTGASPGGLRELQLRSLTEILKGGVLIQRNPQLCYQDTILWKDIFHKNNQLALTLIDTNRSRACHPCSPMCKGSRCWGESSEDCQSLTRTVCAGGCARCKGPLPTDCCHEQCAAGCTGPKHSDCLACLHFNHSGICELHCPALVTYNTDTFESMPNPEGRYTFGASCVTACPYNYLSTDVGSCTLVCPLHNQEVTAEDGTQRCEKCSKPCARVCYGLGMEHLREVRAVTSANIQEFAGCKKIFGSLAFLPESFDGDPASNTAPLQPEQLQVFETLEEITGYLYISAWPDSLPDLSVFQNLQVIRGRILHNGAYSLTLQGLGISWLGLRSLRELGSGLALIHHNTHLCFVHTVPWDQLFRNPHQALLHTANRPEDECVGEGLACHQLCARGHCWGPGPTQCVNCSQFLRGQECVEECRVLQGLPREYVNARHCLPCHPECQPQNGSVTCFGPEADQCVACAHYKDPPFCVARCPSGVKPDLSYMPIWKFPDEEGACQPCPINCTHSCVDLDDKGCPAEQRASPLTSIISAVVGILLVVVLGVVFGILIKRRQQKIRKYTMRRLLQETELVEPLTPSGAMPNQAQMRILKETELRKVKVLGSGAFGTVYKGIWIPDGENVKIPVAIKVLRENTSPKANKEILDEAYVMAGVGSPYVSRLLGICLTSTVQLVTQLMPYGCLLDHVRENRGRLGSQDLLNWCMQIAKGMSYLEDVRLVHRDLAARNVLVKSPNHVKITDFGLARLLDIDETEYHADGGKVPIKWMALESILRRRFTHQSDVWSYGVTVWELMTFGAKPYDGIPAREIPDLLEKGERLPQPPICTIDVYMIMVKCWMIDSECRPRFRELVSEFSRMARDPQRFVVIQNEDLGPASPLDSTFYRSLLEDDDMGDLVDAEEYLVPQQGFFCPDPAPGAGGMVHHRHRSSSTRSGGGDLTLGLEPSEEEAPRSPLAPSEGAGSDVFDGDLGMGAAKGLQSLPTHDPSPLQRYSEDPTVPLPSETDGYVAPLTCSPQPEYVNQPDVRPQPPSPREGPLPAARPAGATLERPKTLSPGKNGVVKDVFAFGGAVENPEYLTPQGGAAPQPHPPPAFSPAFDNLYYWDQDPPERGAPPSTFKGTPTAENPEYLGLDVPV
T2 sequence (P00533 669-1210 limits assumed): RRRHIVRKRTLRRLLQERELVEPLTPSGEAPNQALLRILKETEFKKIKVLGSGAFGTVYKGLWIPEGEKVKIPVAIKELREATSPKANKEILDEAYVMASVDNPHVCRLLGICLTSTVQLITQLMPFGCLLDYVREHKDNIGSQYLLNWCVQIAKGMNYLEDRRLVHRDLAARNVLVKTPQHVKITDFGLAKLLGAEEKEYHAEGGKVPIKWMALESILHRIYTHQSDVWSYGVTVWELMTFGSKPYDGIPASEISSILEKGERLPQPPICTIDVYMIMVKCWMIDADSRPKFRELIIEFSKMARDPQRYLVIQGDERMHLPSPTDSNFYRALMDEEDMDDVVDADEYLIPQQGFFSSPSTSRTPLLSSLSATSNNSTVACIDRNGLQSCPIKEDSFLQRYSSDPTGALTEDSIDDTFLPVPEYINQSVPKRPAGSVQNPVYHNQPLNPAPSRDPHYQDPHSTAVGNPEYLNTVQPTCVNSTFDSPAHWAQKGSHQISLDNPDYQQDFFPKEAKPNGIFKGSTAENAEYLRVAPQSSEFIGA

Turning to `CNC(=O)CN1CCC(Oc2cc3c(Nc4ccc(F)c(Cl)c4F)ncnc3cc2OC)CC1` [Example 5, 4-(3-chloro-2,4-difluoroanilino)-7-methoxy-6-{[1-(N-methycarbamoylmethyl)piperidin-4-yl]oxy}quinazoline], the concentration for half-maximal inhibition (IC50) was found to be 0.047 µM in experiment [1], 0.004 µM in experiment [2], 0.009 µM in experiment [3] and 0.006 µM in experiment [4].
`COc1cc2ncnc(Nc3cccc(Cl)c3F)c2cc1OC1CCN(CC(=O)NCCN2CCCC2)CC1` [Example 7, 4-(3-chloro-2-fluoroanilino)-7-methoxy-6-{[1-(N-[2-(pyrrolidin-1-yl)ethyl]carbamoylmethyl)piperidin-4-yl]oxy}quinazoline]: the IC50 worked out at 0.013 µM in experiment [1], 0.003 µM in experiment [2], 0.017 µM in experiment [3] and 0.014 µM in experiment [4].
On to `COc1cc2ncnc(Nc3cccc(Cl)c3F)c2cc1OC1CCN(CC(=O)N2CCN(C)CC2)CC1` [Example 10, 4-(3-chloro-2-fluoroanilino)-7-methoxy-6-({1-[2-(4-methylpiperazin-1-yl)-2-oxoethyl]piperidin-4-yl}oxy)quinazoline], for which the IC50 in experiment [1] is 0.01 µM; in experiment [2], 0.004 µM; in experiment [4], 0.013 µM.
